pIC50: −log10 of the molar value. ≈ marks a conversion by molar mass, not a printed value. Calls of active or inactive are those of the source. The rule behind the calls is not given here.
Tests used:
[1] = molecular target: cAMP and cAMP-inhibited cGMP 3',5'-cyclic phosphodiesterase 10A (Homo sapiens, UniProt Q9Y233); experiment: Inhibition of human PDE10A using cAMP as substrate preincubated for 30 mins followed by substrate addition and measured after 60 mins by HTRF detection assay
LLC-PK1 = experiment: Ratio of efflux ratio of LLC-PK1 cells expressing human MDR1 at 1 uM to efflux ratio of wild type LLC-PK1 cells at 1 uM; type: ADME, cell-based, Sus scrofa; conditions: pig, llc-pk1, 1 µM
[2] = Drug uptake in mouse brain at 0.1 mg/kg, po measured after 1 hr by LC-MS/MS analysis; type: ADME, organism-based
CYP2C8 = molecular target: T1, CYP2C8 (Homo sapiens, UniProt P10632); experiment: Inhibition of CYP2C8 in human liver microsomes assessed as enzyme residual activity incubated for 30 mins by LC-MS/MS analysis relative to control; type: ADME; conditions: read-out: Activity
T1 sequence (P10632 whole entry): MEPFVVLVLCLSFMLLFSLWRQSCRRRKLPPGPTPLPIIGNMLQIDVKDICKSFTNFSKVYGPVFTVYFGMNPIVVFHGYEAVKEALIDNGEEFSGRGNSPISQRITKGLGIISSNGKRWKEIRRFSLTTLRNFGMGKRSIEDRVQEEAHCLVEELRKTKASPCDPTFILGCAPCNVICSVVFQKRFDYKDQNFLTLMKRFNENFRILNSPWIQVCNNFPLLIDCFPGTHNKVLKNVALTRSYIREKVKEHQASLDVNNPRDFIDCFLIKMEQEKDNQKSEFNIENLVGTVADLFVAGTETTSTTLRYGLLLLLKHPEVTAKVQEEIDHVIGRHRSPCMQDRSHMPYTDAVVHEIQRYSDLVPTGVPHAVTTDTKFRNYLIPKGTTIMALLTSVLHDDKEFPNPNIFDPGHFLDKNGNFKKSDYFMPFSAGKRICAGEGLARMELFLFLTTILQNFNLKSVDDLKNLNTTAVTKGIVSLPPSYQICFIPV

[3] = Lipophilicity, logD of the compound at pH 7.4; type: physicochemical; conditions: buffer
Mus musculus [4] = experiment: Cognition enhancement activity in ddY mouse assessed as suppression of MK-801-induced working memory deficit by measuring decrease in spontaneous alternation behavior at 0.1 to 0.3 mg/kg, po pretreated 40 mins before MK-801 dosing and measured after 20 mins by Y-maze test; type: functional, organism-based
[5] = Apparent permeability in wild type pig LLC-PK1 cells at 1 uM incubated for 3 hrs by […] LC-MS/MS analysis; type: ADME, cell-based, Sus scrofa
CYP2C9 = CYP2C9 (Homo sapiens, UniProt P11712); experiment: Inhibition of CYP2C9 in human liver microsomes assessed as enzyme residual activity incubated for 30 mins by LC-MS/MS analysis relative to control; type: ADME; conditions: read-out: Activity
[6] = Intrinsic clearance in mouse liver microsomes by LC-MS/MS analysis; type: ADME, Microsome; conditions: read-out: CLH
[7] = Total brain to plasma partition coefficient, Kp in mouse at 0.1 mg/kg, po measured after 1 hr by LC-MS/MS analysis; type: ADME, organism-based
CYP2C19 = CYP2C19 (Homo sapiens, UniProt P33261); experiment: Inhibition of CYP2C19 in human liver microsomes assessed as enzyme residual activity incubated for 30 mins by LC-MS/MS analysis relative to control; type: ADME; conditions: read-out: Activity
[8] = Solubility of the compound in pH 6.8 JP2 buffer; type: physicochemical
[9] = Drug uptake in mouse plasma at 0.1 mg/kg, po measured after 1 hr by LC-MS/MS analysis; type: ADME, organism-based
CYP1A2 = molecular target: T2, CYP1A2 (Homo sapiens, UniProt P05177); experiment: Inhibition of CYP1A2 in human liver microsomes assessed as enzyme residual activity incubated for 30 mins by LC-MS/MS analysis relative to control; type: ADME; conditions: read-out: Activity
T2 sequence (P05177 whole entry): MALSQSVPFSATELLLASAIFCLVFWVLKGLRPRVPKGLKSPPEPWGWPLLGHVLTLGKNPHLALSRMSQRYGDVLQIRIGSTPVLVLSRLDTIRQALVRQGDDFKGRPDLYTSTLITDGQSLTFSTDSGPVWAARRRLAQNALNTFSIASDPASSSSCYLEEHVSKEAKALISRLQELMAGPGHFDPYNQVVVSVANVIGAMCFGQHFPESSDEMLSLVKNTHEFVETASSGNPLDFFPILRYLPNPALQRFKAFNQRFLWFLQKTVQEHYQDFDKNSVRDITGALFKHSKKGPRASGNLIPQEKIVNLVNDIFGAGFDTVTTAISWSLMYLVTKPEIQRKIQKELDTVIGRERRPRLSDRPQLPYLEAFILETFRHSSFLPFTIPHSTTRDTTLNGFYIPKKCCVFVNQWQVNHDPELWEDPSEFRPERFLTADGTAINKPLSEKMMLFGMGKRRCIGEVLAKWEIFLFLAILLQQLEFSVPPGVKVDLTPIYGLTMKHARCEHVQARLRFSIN

[10] = Toxicity in ICR mouse assessed as induction of catalepsy up to 100 mg/kg, po treated for 60 mins and measured up to 120 secs by bar test; type: organism-based; conditions: in vivo
[11] = Intrinsic clearance in human liver microsomes by LC-MS/MS analysis; type: ADME, Microsome
Mus musculus [12] = experiment: Antipsychotic activity in ICR mouse assessed as inhibition of Phencyclidine-induced hyperlocomotion pretreated orally followed by Phencyclidine injection and measured after 60 mins; type: functional, organism-based
CYP3A4 = CYP3A4 (Homo sapiens, UniProt P08684); experiment: Inhibition of CYP3A4 in human liver microsomes assessed as enzyme residual activity incubated for 30 mins by LC-MS/MS analysis relative to control; type: ADME; conditions: read-out: Activity
Mus musculus [13] = experiment: Effect on mean number of arm entries in ddY mouse at 1 mg/kg, po pretreated 40 mins before MK-801 dosing and measured after 20 mins by Y-maze test; type: organism-based; conditions: in vivo
CYP2D6 = CYP2D6 (Homo sapiens, UniProt P10635); experiment: Inhibition of CYP2D6 in human liver microsomes assessed as enzyme residual activity incubated for 30 mins by LC-MS/MS analysis relative to control; type: ADME; conditions: read-out: Activity
Mus musculus [14] = experiment: Effect on mean number of arm entries in ddY mouse at 0.03 to 0.3 mg/kg, po pretreated 40 mins before MK-801 dosing and measured after 20 mins by Y-maze test; type: organism-based; conditions: in vivo

Sequence of cAMP and cAMP-inhibited cGMP 3',5'-cyclic phosphodiesterase 10A (Q9Y233 whole entry): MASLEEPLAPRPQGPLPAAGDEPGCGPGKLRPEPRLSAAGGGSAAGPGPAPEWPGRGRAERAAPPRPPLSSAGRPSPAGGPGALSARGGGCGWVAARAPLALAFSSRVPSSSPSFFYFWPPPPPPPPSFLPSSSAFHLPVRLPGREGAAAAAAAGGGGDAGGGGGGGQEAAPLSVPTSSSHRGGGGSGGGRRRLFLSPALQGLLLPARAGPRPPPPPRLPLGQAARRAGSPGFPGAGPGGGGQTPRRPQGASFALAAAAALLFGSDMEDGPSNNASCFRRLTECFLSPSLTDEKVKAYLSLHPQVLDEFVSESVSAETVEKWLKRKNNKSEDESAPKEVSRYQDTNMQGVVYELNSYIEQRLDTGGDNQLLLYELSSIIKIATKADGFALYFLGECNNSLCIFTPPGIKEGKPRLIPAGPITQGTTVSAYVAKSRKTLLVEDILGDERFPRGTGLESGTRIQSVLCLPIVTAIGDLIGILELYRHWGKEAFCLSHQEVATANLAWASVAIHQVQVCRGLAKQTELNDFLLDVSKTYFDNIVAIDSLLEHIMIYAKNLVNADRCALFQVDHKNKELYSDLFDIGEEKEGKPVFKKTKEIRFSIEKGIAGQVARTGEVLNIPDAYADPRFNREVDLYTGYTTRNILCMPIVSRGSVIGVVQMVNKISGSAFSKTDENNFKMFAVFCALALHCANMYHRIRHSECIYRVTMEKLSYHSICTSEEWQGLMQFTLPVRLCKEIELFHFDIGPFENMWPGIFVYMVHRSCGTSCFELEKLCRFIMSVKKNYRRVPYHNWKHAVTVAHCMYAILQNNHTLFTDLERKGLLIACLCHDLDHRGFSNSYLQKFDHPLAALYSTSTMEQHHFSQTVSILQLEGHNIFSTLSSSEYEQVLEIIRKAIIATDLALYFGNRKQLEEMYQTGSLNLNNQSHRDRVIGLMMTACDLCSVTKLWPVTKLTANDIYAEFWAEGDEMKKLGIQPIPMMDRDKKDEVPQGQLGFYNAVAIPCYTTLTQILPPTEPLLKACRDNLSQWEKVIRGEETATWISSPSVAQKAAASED
Sequence of CYP2C19 (P33261 whole entry): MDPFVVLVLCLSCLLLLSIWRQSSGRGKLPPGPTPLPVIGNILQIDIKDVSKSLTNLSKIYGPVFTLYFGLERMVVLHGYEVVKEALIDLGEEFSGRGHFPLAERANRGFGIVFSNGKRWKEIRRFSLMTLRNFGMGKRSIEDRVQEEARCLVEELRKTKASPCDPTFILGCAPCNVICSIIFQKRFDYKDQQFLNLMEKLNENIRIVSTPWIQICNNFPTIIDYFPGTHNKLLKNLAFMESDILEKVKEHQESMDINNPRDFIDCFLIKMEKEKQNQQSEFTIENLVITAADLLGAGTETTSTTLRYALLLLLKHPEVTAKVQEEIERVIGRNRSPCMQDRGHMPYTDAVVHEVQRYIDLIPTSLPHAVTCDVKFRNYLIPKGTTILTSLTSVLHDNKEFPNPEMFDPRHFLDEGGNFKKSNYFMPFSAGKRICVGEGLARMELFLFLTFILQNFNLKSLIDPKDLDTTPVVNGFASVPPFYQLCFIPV
Sequence of CYP2C9 (P11712 whole entry): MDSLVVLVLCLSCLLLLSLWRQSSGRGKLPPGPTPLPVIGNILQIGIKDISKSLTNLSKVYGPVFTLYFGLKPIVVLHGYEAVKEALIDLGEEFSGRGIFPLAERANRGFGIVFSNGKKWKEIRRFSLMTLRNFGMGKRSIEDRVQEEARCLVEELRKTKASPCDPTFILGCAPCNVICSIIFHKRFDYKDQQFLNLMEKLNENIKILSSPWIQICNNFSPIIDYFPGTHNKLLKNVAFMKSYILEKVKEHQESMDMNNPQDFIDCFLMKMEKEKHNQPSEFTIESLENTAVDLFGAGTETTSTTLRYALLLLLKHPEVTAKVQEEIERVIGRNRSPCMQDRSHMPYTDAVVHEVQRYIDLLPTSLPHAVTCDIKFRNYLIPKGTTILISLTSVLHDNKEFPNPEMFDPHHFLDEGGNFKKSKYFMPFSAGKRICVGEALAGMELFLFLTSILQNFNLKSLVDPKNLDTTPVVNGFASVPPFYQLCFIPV
Sequence of CYP3A4 (P08684 whole entry): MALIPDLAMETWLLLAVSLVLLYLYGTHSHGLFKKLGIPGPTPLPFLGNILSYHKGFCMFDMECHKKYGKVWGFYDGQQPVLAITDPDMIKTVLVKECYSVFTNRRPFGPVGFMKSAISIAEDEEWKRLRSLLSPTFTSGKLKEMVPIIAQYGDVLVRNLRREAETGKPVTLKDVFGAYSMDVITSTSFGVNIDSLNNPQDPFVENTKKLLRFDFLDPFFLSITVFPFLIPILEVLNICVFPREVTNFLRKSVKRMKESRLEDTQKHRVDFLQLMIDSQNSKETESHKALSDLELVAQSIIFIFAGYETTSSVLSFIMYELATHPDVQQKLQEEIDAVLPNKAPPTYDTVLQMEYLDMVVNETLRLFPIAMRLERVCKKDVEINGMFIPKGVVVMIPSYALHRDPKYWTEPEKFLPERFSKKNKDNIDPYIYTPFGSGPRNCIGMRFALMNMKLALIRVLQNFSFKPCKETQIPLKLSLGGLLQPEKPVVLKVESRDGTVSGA
Sequence of CYP2D6 (P10635 whole entry): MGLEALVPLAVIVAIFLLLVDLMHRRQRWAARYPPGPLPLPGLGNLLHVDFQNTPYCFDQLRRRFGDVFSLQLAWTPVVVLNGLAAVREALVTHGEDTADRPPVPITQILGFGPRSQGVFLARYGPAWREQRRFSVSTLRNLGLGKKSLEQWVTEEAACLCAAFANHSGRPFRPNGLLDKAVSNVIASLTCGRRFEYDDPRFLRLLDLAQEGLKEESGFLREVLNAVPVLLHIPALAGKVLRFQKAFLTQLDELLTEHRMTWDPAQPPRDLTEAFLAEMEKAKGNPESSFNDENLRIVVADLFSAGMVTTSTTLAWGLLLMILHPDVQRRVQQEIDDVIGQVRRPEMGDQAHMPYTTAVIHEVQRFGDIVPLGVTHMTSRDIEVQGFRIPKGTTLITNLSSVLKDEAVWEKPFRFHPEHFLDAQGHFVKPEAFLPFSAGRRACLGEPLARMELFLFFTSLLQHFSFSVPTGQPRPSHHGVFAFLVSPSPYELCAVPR

| SMILES | pIC50 [1] | Ratio (LLC-PK1) | further results |
| --- | --- | --- | --- |
| Cc1cc(C)n2nc(CC(=O)N3CCn4c3nc3c(C)cccc34)nc2n1 | < 5.00 | – | – |
| Cc1cc(C)n2cc(CC(=O)N3CCn4c3nc3ccccc34)nc2n1 | 6.56 | 1 | – |
| Cc1ccc2nc3n(c2c1)CCN3C(=O)Cc1nc2nc(C)cc(C)n2n1 | 6.38 | – | – |
| Cc1cc(C)n2nc(CCNc3ncc4ccccc4n3)nc2n1 | 5.68 | – | – |
| Cc1cc(C)n2nc(CC(=O)N3CC(C)n4c3nc3ccccc34)nc2n1 (stereo unspecified) | 6.53 | – | – |
| Cc1ncc(C)n2nc(CC(=O)N3c4nc5ccccc5n4C[C@@H]3C)nc12 | 8.08 | 1.2 | concentration at 1 h ([2]; brain, read-out: Drug uptake): 2.2 ng/g; activity at 0.5 h (CYP2C8): 99%; logD [3]: 2; Activity (Mus musculus [4]): Active; Papp at 3 h, 1 µM [5]: 27.5 ×10⁻⁶ cm/s; activity at 0.5 h (CYP2C9): 96%; CLint scaled [6]: 175 mL/min/kg; Kp at 1 h [7]: 2.3; activity at 0.5 h (CYP2C19): 90%; solubility [8]: 100 µM (≈ 36.1 µg/mL); concentration at 1 h [9]: 0.91 ng/mL; activity at 0.5 h (CYP1A2): 98%; Activity [10]: Non-Toxic; CLH [11]: Stable; Activity (Mus musculus [12]): Dose-dependent effect; activity at 0.5 h (CYP3A4): 90%; Activity (Mus musculus [13]): Toxic; activity at 0.5 h (CYP2D6): 102%; Activity (Mus musculus [14]): Non-Toxic |
| Cc1cc(C)n2nc(CC(=O)N3CCn4c3nc3ccccc34)nc2n1 | 7.28 | 2.3 | Papp at 3 h, 1 µM [5]: 16.8 ×10⁻⁶ cm/s |
| Cc1cc(C)n2nc(CC(=O)N3c4nc5ccccc5n4CC3C)nc2n1 (racemic) | 7.16 | 2.4 | – |
| Cc1cc(C)n2nc(CCNc3nc4ccccc4[nH]3)nc2n1 | 6.98 | – | – |
| Cc1cc(C)n2nc(CCc3cc(O)n4nc5ncccc5c4n3)nc2n1 | 8.54 | – | – |
| Cc1cc(C)n2nc(CC(=O)N3CCn4c3nc3ccccc34)nc2c1 | 6.87 | 1.2 | – |
| Cc1cc(C)n2nc(CCNc3nc4ccccc4n3C)nc2n1 | 7.06 | – | – |
| Cc1cc(C)n2nc(CCc3cc(O)n4nc5ccccc5c4n3)nc2n1 | 8.70 | 1.8 | Drug uptake ([2]; in vivo, 1 h): Not Active; logD [3]: 0.3; Papp at 3 h, 1 µM [5]: 3.2 ×10⁻⁶ cm/s; concentration at 1 h [9]: 0.59 ng/mL |
| Cc1ccc2c(c1)nc1n2CCN1C(=O)Cc1nc2nc(C)cc(C)n2n1 | 6.36 | – | – |
| Cc1cc(C)n2nc(CCNc3ccc4ccccc4n3)nc2n1 | 6.53 | – | – |
| Cc1cc(C)n2nc(CCN3CCn4c3nc3ccccc34)nc2n1 | 6.86 | 3.6 | Papp at 3 h, 1 µM [5]: 19.2 ×10⁻⁶ cm/s |
| Cc1cc(C)n2nc(CC(=O)N3c4nc5ccccc5n4CC3(C)C)nc2n1 | 7.13 | 2.1 | – |

More lines, in order of rising pIC50 [1], values ahead:

| pIC50 [1] | Ratio (LLC-PK1) | SMILES | further results |
| --- | --- | --- | --- |
| 5.72 | – | Cc1cc(C)n2nc(CC(=O)N3c4nc5ccccc5n4C[C@H]3c3ccccc3)nc2n1 | – |
| 5.83 | – | Cc1cc(C)n2nc(CC(=O)N3CCCn4c3nc3ccccc34)nc2n1 | – |
| 5.91 | – | Cc1cc(C)n2nc(CCNc3cnc4ccccc4n3)nc2n1 | – |
| 6.55 | – | Cc1cc(C)n2nc(CC(=O)N3CCn4c3nc3cccc(C)c34)nc2n1 | – |
| 7.11 | – | Cc1cc(C)n2nc(CCc3ccn4nc5ccccc5c4n3)nc2n1 | – |
| 7.12 | 3.8 | Cc1cc(C)n2nc(CC(=O)N3c4nc5ccccc5n4C[C@@H]3c3ccccc3)nc2n1 | – |
| 7.36 | 1.3 | Cc1ncc(C)n2nc(CC(=O)N3CCn4c3nc3ccccc34)nc12 | – |
| 7.55 | 2.4 | Cc1cc(C)n2nc(CC(=O)N3c4nc5ccccc5n4C[C@@H]3C)nc2n1 | – |
